Measured values taken from ChEMBL document CHEMBL1201862, “PubChem BioAssay data set” (2004).
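Tested at 5 concentrations; 48 h exposure; 96-well plates; endpoints linearly interpolated, else capped at highest concentration. Here, GI50 denotes the concentration required for 50% inhibition of growth.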 Activity calls are given as the source filed them. Cut-off read from the data, not from the text of the source: active = GI50 up to about 1.1 µM and inactive = higher.

Assays:
Test in all cases: growth of human tumour cells (NCI), 48 h
786-0 = tested on: 786-0
A498 = tested on: A498
A549 = tested on: A549
ACHN = tested on: ACHN
BT-549 = tested on: BT-549
CAKI-1 = tested on: CAKI-1
CCRF-CEM = tested on: CCRF-CEM
COLO 205 = tested on: COLO 205
DU-145 = tested on: DU-145
EKVX = tested on: EKVX
HCC 2998 = tested on: HCC 2998
HCT-116 = tested on: HCT-116
HCT-15 = tested on: HCT-15
HL-60 = tested on: HL-60
HOP-62 = tested on: HOP-62
HOP-92 = tested on: HOP-92
HT-29 = tested on: HT-29
Hs-578T = tested on: Hs-578T
IGROV-1 = tested on: IGROV-1
K562 = tested on: K562
KM12 = tested on: KM12
LOX IMVI = tested on: LOX IMVI
M14 = tested on: M14
MCF7 = tested on: MCF7
MDA-MB-231 = tested on: MDA-MB-231
MDA-MB-435 = tested on: MDA-MB-435
MDA-N = tested on: MDA-N
MOLT-4 = tested on: MOLT-4
Malme-3M = tested on: Malme-3M
NCI-H23 = tested on: NCI-H23
NCI-H460 = tested on: NCI-H460
NCI-H522 = tested on: NCI-H522
NCI/ADR-RES = tested on: NCI/ADR-RES
OVCAR-3 = tested on: OVCAR-3
OVCAR-5 = tested on: OVCAR-5
OVCAR-8 = tested on: OVCAR-8
PC-3 = tested on: PC-3
RPMI-8226 = tested on: RPMI-8226
SF-268 = tested on: SF-268
SF-295 = tested on: SF-295
SF-539 = tested on: SF-539
SK-MEL-28 = tested on: SK-MEL-28
SK-MEL-2 = tested on: SK-MEL-2
SK-MEL-5 = tested on: SK-MEL-5
SK-OV-3 = tested on: SK-OV-3
SN12C = tested on: SN12C
SNB-19 = tested on: SNB-19
SNB-75 = tested on: SNB-75
SR = tested on: SR
SW-620 = tested on: SW-620
T47D = tested on: T47D
TK-10 = tested on: TK-10
U-251 = tested on: U-251
UACC-257 = tested on: UACC-257
UACC-62 = tested on: UACC-62
UO-31 = tested on: UO-31
NCI-H226 = tested on: NCI-H226
OVCAR-4 = tested on: OVCAR-4
RXF 393 = tested on: RXF 393

Measured: GI50

CC(C)(C(=O)NN)c1ccccc1
> 100 µM: HCT-15
inactive: 786-0 > 100 µM | A498 > 100 µM | A549 > 100 µM | ACHN > 100 µM | BT-549 > 100 µM | CAKI-1 > 100 µM | CCRF-CEM > 100 µM | COLO 205 > 100 µM | DU-145 > 100 µM | EKVX 34.6 µM | HCC 2998 > 100 µM | HCT-116 > 100 µM | HL-60 > 100 µM | HOP-62 > 100 µM | HOP-92 > 100 µM | HT-29 > 100 µM | Hs-578T > 100 µM | IGROV-1 8.79 µM | K562 > 100 µM | KM12 42.3 µM | LOX IMVI 7.91 µM | M14 > 100 µM | MCF7 > 100 µM | MDA-MB-231 > 100 µM | MDA-MB-435 86.5 µM | MDA-N 42.4 µM | MOLT-4 > 100 µM | Malme-3M > 100 µM | NCI-H23 > 100 µM | NCI-H460 37.2 µM | NCI-H522 56.2 µM | NCI/ADR-RES > 100 µM | OVCAR-3 > 100 µM | OVCAR-5 > 100 µM | OVCAR-8 > 100 µM | PC-3 > 100 µM | RPMI-8226 84.1 µM | SF-268 45.3 µM | SF-295 33.7 µM | SF-539 42.2 µM | SK-MEL-28 > 100 µM | SK-MEL-2 21.6 µM | SK-MEL-5 > 100 µM | SK-OV-3 > 100 µM | SN12C > 100 µM | SNB-19 > 100 µM | SNB-75 > 100 µM | SR > 100 µM | SW-620 33 µM | T47D > 100 µM | TK-10 > 100 µM | U-251 > 100 µM | UACC-257 > 100 µM | UACC-62 19.3 µM | UO-31 76.6 µM

CCOC(=O)c1c(-c2ccccc2)[nH]c2ccc(Cl)cc2c1=O
inactive: 786-0 38.7 µM | A549 36.6 µM | ACHN 27.6 µM | BT-549 30.8 µM | CAKI-1 37.9 µM | CCRF-CEM 26.4 µM | COLO 205 47.5 µM | DU-145 56 µM | EKVX 54.6 µM | HCC 2998 37.9 µM | HCT-116 27.2 µM | HL-60 28.2 µM | HOP-62 65.9 µM | HOP-92 22 µM | HT-29 27.9 µM | Hs-578T 35.4 µM | IGROV-1 29.6 µM | K562 28.8 µM | KM12 34.8 µM | LOX IMVI 37.4 µM | M14 49.9 µM | MCF7 31.8 µM | MDA-MB-231 31.3 µM | MDA-MB-435 34.8 µM | MDA-N 37.7 µM | MOLT-4 28.3 µM | Malme-3M 61.8 µM | NCI-H226 68.9 µM | NCI-H23 41.1 µM | NCI-H460 30.3 µM | NCI-H522 28 µM | NCI/ADR-RES 32.2 µM | OVCAR-3 19.5 µM | OVCAR-4 20.5 µM | OVCAR-5 > 100 µM | OVCAR-8 31.8 µM | PC-3 41.1 µM | RPMI-8226 36.9 µM | RXF 393 35 µM | SF-268 50.1 µM | SF-295 47.8 µM | SF-539 29.9 µM | SK-MEL-28 69.7 µM | SK-MEL-2 34 µM | SK-MEL-5 29.8 µM | SK-OV-3 45.1 µM | SN12C 51.4 µM | SNB-19 > 100 µM | SNB-75 45.8 µM | SR 33.3 µM | SW-620 > 100 µM | T47D 23.7 µM | TK-10 42.8 µM | U-251 41.6 µM | UACC-257 36 µM | UACC-62 37.7 µM | UO-31 29.4 µM
33.3 µM: HCT-15

CCOC(=O)Oc1cc2c(ccn2C)c2c1c1ccccc1n2C(=O)OCC
inactive: 786-0 > 100 µM | A498 > 100 µM | A549 > 100 µM | ACHN > 100 µM | BT-549 > 100 µM | CAKI-1 > 100 µM | CCRF-CEM > 100 µM | COLO 205 > 100 µM | DU-145 > 100 µM | EKVX > 100 µM | HCT-116 > 100 µM | HOP-62 > 100 µM | HOP-92 > 100 µM | HT-29 > 100 µM | Hs-578T > 100 µM | IGROV-1 > 100 µM | K562 > 100 µM | KM12 > 100 µM | LOX IMVI > 100 µM | M14 > 100 µM | MCF7 > 100 µM | MDA-MB-231 > 100 µM | MDA-MB-435 > 100 µM | MDA-N > 100 µM | MOLT-4 > 100 µM | Malme-3M 76.7 µM | NCI-H226 > 100 µM | NCI-H23 > 100 µM | NCI-H460 > 100 µM | NCI-H522 > 100 µM | NCI/ADR-RES > 100 µM | OVCAR-3 > 100 µM | OVCAR-4 > 100 µM | OVCAR-5 > 100 µM | OVCAR-8 > 100 µM | PC-3 > 100 µM | RPMI-8226 > 100 µM | RXF 393 > 100 µM | SF-268 > 100 µM | SF-295 > 100 µM | SF-539 > 100 µM | SK-MEL-28 > 100 µM | SK-MEL-2 > 100 µM | SK-MEL-5 > 100 µM | SK-OV-3 > 100 µM | SN12C > 100 µM | SNB-75 > 100 µM | SR > 100 µM | SW-620 > 100 µM | T47D > 100 µM | TK-10 > 100 µM | U-251 > 100 µM | UACC-257 > 100 µM | UACC-62 > 100 µM | UO-31 > 100 µM
> 100 µM: HCT-15

C[N+](C)(CCCCCC[N+](C)(C)CCCN1C(=O)c2cccc3cccc(c23)C1=O)CCCN1C(=O)c2cccc3cccc(c23)C1=O
inactive: A498 > 100 µM | A549 > 100 µM | ACHN > 100 µM | BT-549 > 100 µM | CAKI-1 78 µM | CCRF-CEM > 100 µM | COLO 205 > 100 µM | DU-145 > 100 µM | EKVX > 100 µM | HCT-116 72.8 µM | HL-60 > 100 µM | HOP-92 > 100 µM | HT-29 > 100 µM | Hs-578T > 100 µM | IGROV-1 > 100 µM | K562 > 100 µM | KM12 > 100 µM | LOX IMVI > 100 µM | MCF7 > 100 µM | MDA-MB-231 56.2 µM | MDA-MB-435 > 100 µM | MDA-N > 100 µM | MOLT-4 > 100 µM | Malme-3M > 100 µM | NCI-H23 > 100 µM | NCI-H460 > 100 µM | NCI-H522 > 100 µM | NCI/ADR-RES > 100 µM | OVCAR-3 84.9 µM | OVCAR-4 > 100 µM | OVCAR-5 > 100 µM | OVCAR-8 > 100 µM | PC-3 > 100 µM | RPMI-8226 > 100 µM | RXF 393 > 100 µM | SF-268 > 100 µM | SF-295 41.7 µM | SF-539 > 100 µM | SK-MEL-28 > 100 µM | SK-MEL-2 > 100 µM | SK-MEL-5 > 100 µM | SK-OV-3 > 100 µM | SN12C > 100 µM | SNB-19 > 100 µM | SR > 100 µM | SW-620 > 100 µM | T47D > 100 µM | TK-10 > 100 µM | U-251 > 100 µM | UACC-257 > 100 µM | UACC-62 33 µM | UO-31 > 100 µM
> 100 µM: HCT-15
